PMC8188423, “Investigating the phosphinic acid tripeptide mimetic DG013A as a tool compound inhibitor of the M1-aminopeptidase ERAP1” (Bioorganic & Medicinal Chemistry Letters, 2021)
Where two headings read alike, the source gives them in different places.

Experiments:
[1] = Caco-2 permeability assay; assay type: in vitro ADME, human; conditions: human; for recovery at 2 h, 10 μM: Caco-2, pH 7.4, SI table; for Papp B→A at 2 h, 10 μM / Papp A→B at 2 h, 10 μM: Caco-2, pH 7.4; for Papp B→A at 2 h, 10 μM: SI table; for Papp A→B at 2 h, 10 μM: apical to basolateral, limit of quantification 1.0 x 10^−6 cm/s, read-out: CACO2 Papp A:B
Description: (§1) Whether the inhibition of ERAP1 by 1 would translate to in-cell activity would depend on its permeability, as well as its affinity.
(§2) Papp (apparent permeability) was determined in the Caco-2 human colon carcinoma cell line (ATCC). Cells were maintained (DMEM with 10% fetal bovine serum, penicillin, and streptomycin) in a humidified atmosphere with 5% CO2/95% air for 10 days. Cells were plated out onto a cell culture assembly plate (Millipore, UK), and monolayer confluency was checked using a TEER electrode prior to the assay. Media was washed off and replaced in the appropriate apical and basal wells with HBSS buffer (pH 7.4) containing compound (10 μM, 1% DMSO). The Caco-2 plate was incubated for 2 h at 37 °C, and Lucifer Yellow was used to confirm membrane integrity after the assay. Samples from the apical and basolateral chambers were analyzed using a Waters TQ-S LC-MS/MS system.

[2] = tested on: Caco-2 human colon carcinoma cell line; experiment: Caco-2 permeability assay; assay type: in vitro ADME; conditions: SI table, remark in Recovery A:B cell
Description: as §1, §2

human ERAP2 = human ERAP2 (Homo sapiens, UniProt Q6P179); experiment: ERAP2 R-AMC aminopeptidase assay; conditions: ERAP2 10 nM, R-AMC 10 µM, pH8.0, 30 min
human ERAP2, sequence (Q6P179 whole entry): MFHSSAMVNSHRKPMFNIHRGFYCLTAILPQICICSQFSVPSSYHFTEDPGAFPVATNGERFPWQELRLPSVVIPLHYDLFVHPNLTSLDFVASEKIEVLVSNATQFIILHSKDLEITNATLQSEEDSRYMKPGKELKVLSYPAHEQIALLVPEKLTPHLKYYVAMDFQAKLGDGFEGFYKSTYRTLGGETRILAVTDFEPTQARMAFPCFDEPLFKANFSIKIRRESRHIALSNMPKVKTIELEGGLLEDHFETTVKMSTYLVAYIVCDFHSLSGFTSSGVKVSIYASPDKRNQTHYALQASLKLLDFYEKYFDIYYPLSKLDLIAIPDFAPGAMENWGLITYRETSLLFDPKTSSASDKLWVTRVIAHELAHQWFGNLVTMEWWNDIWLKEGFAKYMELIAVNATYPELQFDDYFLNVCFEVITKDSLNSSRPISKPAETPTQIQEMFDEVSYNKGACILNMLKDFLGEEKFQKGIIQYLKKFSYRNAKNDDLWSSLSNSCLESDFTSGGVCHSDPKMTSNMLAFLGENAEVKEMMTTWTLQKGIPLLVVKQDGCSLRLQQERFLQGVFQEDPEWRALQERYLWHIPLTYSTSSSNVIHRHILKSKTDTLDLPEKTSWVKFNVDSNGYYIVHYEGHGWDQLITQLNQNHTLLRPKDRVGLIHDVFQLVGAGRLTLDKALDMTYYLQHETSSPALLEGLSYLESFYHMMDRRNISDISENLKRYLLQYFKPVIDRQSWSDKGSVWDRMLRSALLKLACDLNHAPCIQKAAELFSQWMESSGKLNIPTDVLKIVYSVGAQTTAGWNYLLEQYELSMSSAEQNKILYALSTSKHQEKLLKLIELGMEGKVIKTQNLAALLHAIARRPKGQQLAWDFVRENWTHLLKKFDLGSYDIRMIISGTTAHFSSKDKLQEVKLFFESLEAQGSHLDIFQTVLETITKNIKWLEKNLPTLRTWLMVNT
Description: Conditions were selected whereby substrate concentrations were at or below Km, so that IC50 values could be compared between proteins for competitive ligands.
Briefly, the assay consists in measuring the fluorescence of 7-amido-4-methylcoumarin (AMC) released by the enzymatic hydrolysis of one of the short peptide substrates: Leucine-AMC (Sigma, catalogue # L2145) by the ERAP1 enzyme, Arginine-AMC (Sigma, catalogue # A2027) by the ERAP2 enzyme or Alanine-AMC (Sigma, catalogue #A4302) by the APN (ANPEP/CD13) enzyme. […] After 30 minutes of reaction at room temperature, the fluorescence was red on a Pherastar FSX (BMG LabTech) or an Envision (Perkin Elmer) plate readers, with excitation and emission filters at 350 nm and 460 nm, respectively.

Row | Compound | recovery at 2 h, 10 μM ([1]; read-out: Recovery A:B) [%] | recovery at 2 h, 10 μM ([1]; read-out: Recovery B:A) [%] | Papp B→A at 2 h, 10 μM [1] [×10⁻⁶ cm/s] | Papp A→B at 2 h, 10 μM [1] [×10⁻⁶ cm/s] | stability observation in Caco-2 assay A:B [2] | efflux ratio at 2 h, 10 μM ([1]; Caco-2, pH 7.4, PappB:A/PappA:B, read-out: CACO2 ER (efflux ratio)) | ERAP2 pIC50 ± SEM (human ERAP2) | IC50 (human ERAP2; read-out: ERAP2 IC50 (geometric mean)) [µM]
1 | COC(=O)[C@H](Cc1c[nH]c2ccccc12)NC(=O)C(CC(C)C)CP(=O)(O)[C@@H](N)CCc1ccccc1 (stereo in doubt) [compound 17, ((R)-2-(((S)-3-(1H-indol-3-yl)-1-methoxy-1-oxopropan-2-yl)carbamoyl)-4-methylpentyl)((R)-1-amino-3-phenylpropyl)phosphinic acid] | 2 | 84 | < 1 | < 1 | Ester hydrolysis observed |  |  | 
2 | CC(C)CC(CP(=O)(O)[C@@H](N)CCc1ccccc1)C(=O)N[C@@H](Cc1c[nH]c2ccccc12)C(=O)O (stereo in doubt) [compound 18, ((2R)-2-((((R)-1-amino-3-phenylpropyl)(hydroxy)phosphoryl)methyl)-4-methylpentanoyl)-L-tryptophan] | 83 | 96 | < 1 | < 1 |  |  |  | 
3 | CC(C)C[C@H](CP(=O)(O)[C@@H](N)CCc1ccccc1)C(=O)N[C@@H](Cc1c[nH]c2ccccc12)C(N)=O [DG013A 1, ((S)-2-(((S)-1-amino-3-(1H-indol-3-yl)-1-oxopropan-2-yl)carbamoyl)-4-methylpentyl)((R)-1-amino-3-phenylpropyl)phosphinic acid, reference compound] | 97 | 100 | < 1 | < 1 |  |  |  | 
4 | CC(C)C[C@@H](CP(=O)(O)[C@@H](N)CCc1ccccc1)C(=O)N[C@@H](Cc1c[nH]c2ccccc12)C(N)=O [DG013B 2, reference compound] | 83 | 90 | < 1 | < 1 |  |  |  | 
5 | CC(C)C[C@H](CP(=O)(O)[C@H](CCc1ccccc1)NC(=O)OCc1ccccc1)C(=O)N[C@@H](Cc1c[nH]c2ccccc12)C(N)=O [compound 3, (2S)-2-((((1S)-2-amino-1-(1H-indol-3-ylmethyl)-2-oxo-ethyl)carbamoyl)-4-methyl-pentyl)-((1R)-1-(benzyloxycarbonylamino)-3-phenyl-propyl)phosphinic acid] | 79 | 84 | 4.3 | < 1 |  | > 12 | < 3.66 | > 220
